Data published in patent US9139557B2, “Carboxamide compounds and their use as calpain inhibitors” (Abbott GmbH & Co. KG, priority 2006, dated 2015).

Assays:
Format in all cases: biochemical
[1] = target: T1, cathepsin L (Homo sapiens, UniProt P07711); experiment: Cathepsin L enzyme inhibition in vitro (kinetic fluorescence assay); settings: Ki(cathepsin L)/Ki(calpain) ratio
T1 construct: cathepsin L—isolated from human liver; purchased Calbiochem 219402; host or cells: human liver (tissue isolate)
Method in brief: (§1)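 Kinetic fluorescence (ex 390/em 460 nm), RT. Calpain-I: 20 nM erythrocyte-derived, 100 μM Suc-Leu-Tyr-AMC, imidazole/CaCl2, pH 7.3. Cathepsins, pH 6.0 MES/EDTA/cysteine: B 0.25 nM liver, 100 μM Z-Phe-Arg-AMC; L 1 nM liver, 2 μM Z-Phe-Arg-AMC; S 0.5 nM recombinant, 20 μM Z-Val-Val-Arg-AMC. Cheng-Prusoff Ki, mean of 2–4 curves.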

[2] = target: T2, cathepsin S (Homo sapiens, UniProt P25774); experiment: Cathepsin S enzyme inhibition in vitro (kinetic fluorescence assay); settings: Ki(cathepsin S)/Ki(calpain) ratio
T2 construct: purchased Calbiochem 219343; host or cells: E. coli
Method in brief: as §1

[3] = target: T3, cathepsin K (Homo sapiens, UniProt P43235); experiment: Cathepsin K enzyme inhibition in vitro (kinetic fluorescence assay); settings: Ki(cathepsin K)/Ki(calpain) ratio
T3 construct: purchased Calbiochem 342001; host or cells: E. coli
T3 sequence (P43235 115-329): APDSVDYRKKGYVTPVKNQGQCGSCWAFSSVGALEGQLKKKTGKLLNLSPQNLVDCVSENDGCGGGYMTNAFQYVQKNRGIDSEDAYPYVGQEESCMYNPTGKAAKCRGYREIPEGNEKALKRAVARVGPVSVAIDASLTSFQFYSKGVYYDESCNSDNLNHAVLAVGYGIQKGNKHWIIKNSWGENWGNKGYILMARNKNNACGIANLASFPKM

[4] = target: T4, cathepsin B (Homo sapiens, UniProt P07858); experiment: Cathepsin B enzyme inhibition in vitro (kinetic fluorescence assay); settings: Ki(cathepsin B)/Ki(calpain) ratio
T4 construct: cathepsin B—isolated from human liver; purchased Calbiochem 219362; host or cells: human liver (tissue isolate)
Method in brief: as §1

T1 sequence (P07711 114-333): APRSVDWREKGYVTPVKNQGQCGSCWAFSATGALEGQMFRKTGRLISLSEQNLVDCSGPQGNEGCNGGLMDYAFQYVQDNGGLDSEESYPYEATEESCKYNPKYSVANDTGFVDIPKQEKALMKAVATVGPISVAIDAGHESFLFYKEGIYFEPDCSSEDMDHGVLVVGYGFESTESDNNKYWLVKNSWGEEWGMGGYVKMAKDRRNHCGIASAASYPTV
T2 sequence (P25774 115-331): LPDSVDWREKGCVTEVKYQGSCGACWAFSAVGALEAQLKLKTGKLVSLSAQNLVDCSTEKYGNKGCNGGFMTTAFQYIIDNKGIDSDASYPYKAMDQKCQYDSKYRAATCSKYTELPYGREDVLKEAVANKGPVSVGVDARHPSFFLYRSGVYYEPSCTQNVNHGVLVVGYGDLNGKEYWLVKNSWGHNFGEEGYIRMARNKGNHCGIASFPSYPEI

Compound	Sel cat. L [1]	Sel cat. S [2]	Sel cat. K [3]	Sel cat. B [4]
NC(=O)C(=O)C(Cc1ccccc1)NC(=O)c1cccnc1-n1ccc(C23CC4CC(CC(C4)C2)C3)n1 (stereo not shown) [Example 193, N-[3-Amino-2,3-dioxo-1-(phenylmethyl)propyl]-2-(3-tricyclo[3.3.1.1^3,7]dec-1-yl-1H-pyrazol-1-yl)pyridine-3-carboxamide]	++ (++ means a Ki(cathepsin L)/Ki(calpain) ratio of ≧50)	++ (++ means a Ki(cathepsin S)/Ki(calpain) ratio of ≧100)	++ (++ means a Ki(cathepsin K)/Ki(calpain) ratio of ≧30)	++ (++ means a Ki(cathepsin B)/Ki(calpain) ratio of ≧30)
NC(=O)C(=O)C(Cc1ccccc1)NC(=O)c1cccnc1-n1ccc(-c2ccccn2)n1 (stereo not shown) [Example 35, N-(3-Amino-1-benzyl-2,3-dioxopropyl)-2-(3-pyridin-2-yl-1H-pyrazol-1-yl)nicotinamide]	++ (++ means a Ki(cathepsin L)/Ki(calpain) ratio of ≧50)	++ (++ means a Ki(cathepsin S)/Ki(calpain) ratio of ≧100)	+ (+ means 10≦Ki(cathepsin K)/Ki(calpain)<30)	+ (+ means 10≦Ki(cathepsin B)/Ki(calpain)<30)
NC(=O)C(=O)C(Cc1ccccc1)NC(=O)c1cccnc1-n1ccc(-c2ccccc2F)n1 (stereo not shown) [Example 76, N-(3-Amino-1-benzyl-2,3-dioxopropyl)-2-[3-(2-fluorophenyl)-1H-pyrazol-1-yl]nicotinamide]	++ (++ means a Ki(cathepsin L)/Ki(calpain) ratio of ≧50)	++ (++ means a Ki(cathepsin S)/Ki(calpain) ratio of ≧100)	+ (+ means 10≦Ki(cathepsin K)/Ki(calpain)<30)	++ (++ means a Ki(cathepsin B)/Ki(calpain) ratio of ≧30)
COc1ccccc1-c1ccn(-c2ncccc2C(=O)NC(Cc2ccccc2)C(=O)C(N)=O)n1 (stereo not shown) [Example 90, N-[3-Amino-2,3-dioxo-1-(phenylmethyl)propyl]-2-{3-[2-(methyloxy)phenyl]-1H-pyrazol-1-yl}pyridine-3-carboxamide]	++ (++ means a Ki(cathepsin L)/Ki(calpain) ratio of ≧50)	++ (++ means a Ki(cathepsin S)/Ki(calpain) ratio of ≧100)	+ (+ means 10≦Ki(cathepsin K)/Ki(calpain)<30)	++ (++ means a Ki(cathepsin B)/Ki(calpain) ratio of ≧30)
CS(=O)(=O)Nc1cnc(-n2ccc(-c3ccccc3)n2)c(C(=O)NC(Cc2ccccc2)C(=O)C(N)=O)c1 (stereo not shown) [Example 158, N-[3-Amino-2,3-dioxo-1-(phenylmethyl)propyl]-5-[(methylsulfonyl)amino]-2-(3-phenyl-1H-pyrazol-1-yl)pyridine-3-carboxamide]	++ (++ means a Ki(cathepsin L)/Ki(calpain) ratio of ≧50)	++ (++ means a Ki(cathepsin S)/Ki(calpain) ratio of ≧100)	++ (++ means a Ki(cathepsin K)/Ki(calpain) ratio of ≧30)	++ (++ means a Ki(cathepsin B)/Ki(calpain) ratio of ≧30)
NC(=O)C(=O)C(Cc1ccccc1)NC(=O)c1cccnc1-n1ccc(-c2c(F)cccc2F)n1 (stereo not shown) [Example 85, N-[3-Amino-2,3-dioxo-1-(phenylmethyl)propyl]-2-[3-(2,6-difluorophenyl)-1H-pyrazol-1-yl]pyridine-3-carboxamide]	++ (++ means a Ki(cathepsin L)/Ki(calpain) ratio of ≧50)	++ (++ means a Ki(cathepsin S)/Ki(calpain) ratio of ≧100)	++ (++ means a Ki(cathepsin K)/Ki(calpain) ratio of ≧30)	+ (+ means 10≦Ki(cathepsin B)/Ki(calpain)<30)
NC(=O)C(=O)C(Cc1ccccc1)NC(=O)c1cccnc1-n1cc(Cl)c(-c2ccc(F)cc2)n1 (stereo not shown) [Example 184, N-[3-Amino-2,3-dioxo-1-(phenylmethyl)propyl]-2-[4-chloro-3-(4-fluorophenyl)-1H-pyrazol-1-yl]pyridine-3-carboxamide]	++ (++ means a Ki(cathepsin L)/Ki(calpain) ratio of ≧50)	++ (++ means a Ki(cathepsin S)/Ki(calpain) ratio of ≧100)	+ (+ means 10≦Ki(cathepsin K)/Ki(calpain)<30)	+ (+ means 10≦Ki(cathepsin B)/Ki(calpain)<30)
NC(=O)C(=O)C(Cc1ccc(Cl)cc1)NC(=O)c1cccnc1-n1ccc(-c2ccc(F)cc2)n1 (stereo not shown) [Example 67, N-[3-Amino-1-(4-chlorobenzyl)-2,3-dioxopropyl]-2-[3-(4-fluorophenyl)-1H-pyrazol-1-yl]nicotinamide]	++ (++ means a Ki(cathepsin L)/Ki(calpain) ratio of ≧50)	++ (++ means a Ki(cathepsin S)/Ki(calpain) ratio of ≧100)	+ (+ means 10≦Ki(cathepsin K)/Ki(calpain)<30)	+ (+ means 10≦Ki(cathepsin B)/Ki(calpain)<30)
NC(=O)C(=O)C(Cc1ccccc1)NC(=O)c1cccnc1-n1ccc(-c2ccc(Cl)s2)n1 (stereo not shown) [Example 103, N-[3-Amino-2,3-dioxo-1-(phenylmethyl)propyl]-2-[3-(5-chloro-2-thienyl)-1H-pyrazol-1-yl]pyridine-3-carboxamide]	++ (++ means a Ki(cathepsin L)/Ki(calpain) ratio of ≧50)	++ (++ means a Ki(cathepsin S)/Ki(calpain) ratio of ≧100)	+ (+ means 10≦Ki(cathepsin K)/Ki(calpain)<30)	+ (+ means 10≦Ki(cathepsin B)/Ki(calpain)<30)
COc1ccc(-c2ccn(-c3ncccc3C(=O)NC(Cc3ccccc3)C(=O)C(N)=O)n2)c(OC)c1 (stereo not shown) [Example 117, N-[3-Amino-2,3-dioxo-1-(phenylmethyl)propyl]-2-{3-[2,4-bis(methyloxy)phenyl]-1H-pyrazol-1-yl}pyridine-3-carboxamide]	++ (++ means a Ki(cathepsin L)/Ki(calpain) ratio of ≧50)	++ (++ means a Ki(cathepsin S)/Ki(calpain) ratio of ≧100)	++ (++ means a Ki(cathepsin K)/Ki(calpain) ratio of ≧30)	++ (++ means a Ki(cathepsin B)/Ki(calpain) ratio of ≧30)
NC(=O)C(=O)C(Cc1ccc(F)cc1)NC(=O)c1cccnc1-n1ccc(-c2ccccc2)n1 (stereo not shown) [Example 123, N-{3-Amino-1-[(4-fluorophenyl)methyl]-2,3-dioxopropyl}-2-(3-phenyl-1H-pyrazol-1-yl)pyridine-3-carboxamide]	++ (++ means a Ki(cathepsin L)/Ki(calpain) ratio of ≧50)	++ (++ means a Ki(cathepsin S)/Ki(calpain) ratio of ≧100)	++ (++ means a Ki(cathepsin K)/Ki(calpain) ratio of ≧30)	++ (++ means a Ki(cathepsin B)/Ki(calpain) ratio of ≧30)
NC(=O)C(=O)C(Cc1ccccc1)NC(=O)c1cccnc1-n1ccc(-c2cccc3ccccc23)n1 (stereo not shown) [Example 110, N-[3-Amino-2,3-dioxo-1-(phenylmethyl)propyl]-2-(3-naphthalen-1-yl-1H-pyrazol-1-yl)pyridine-3-carboxamide]	++ (++ means a Ki(cathepsin L)/Ki(calpain) ratio of ≧50)	++ (++ means a Ki(cathepsin S)/Ki(calpain) ratio of ≧100)	++ (++ means a Ki(cathepsin K)/Ki(calpain) ratio of ≧30)	++ (++ means a Ki(cathepsin B)/Ki(calpain) ratio of ≧30)
NC(=O)C(=O)C(Cc1ccccc1)NC(=O)c1cccnc1-n1ccc(-c2cccc3cccnc23)n1 (stereo not shown) [Example 160, N-[3-amino-2,3-dioxo-1-(phenylmethyl)propyl]-2-(3-quinolin-8-yl-1H-pyrazol-1-yl)pyridine-3-carboxamide]	++ (++ means a Ki(cathepsin L)/Ki(calpain) ratio of ≧50)	++ (++ means a Ki(cathepsin S)/Ki(calpain) ratio of ≧100)	++ (++ means a Ki(cathepsin K)/Ki(calpain) ratio of ≧30)	++ (++ means a Ki(cathepsin B)/Ki(calpain) ratio of ≧30)
